Test results as given in paper PMC10458307, “New Scaffolds of Proteasome Inhibitors: Boosting Anticancer Potential by Exploiting the Synergy of In Silico and In Vitro Methodologies” (Pharmaceuticals, 2023).
“And” between values parts separate entries of the source, which are not always exact repeats. Equal entries are not always repeated. Where two headings read alike, the source gives them in different places.

Assays:
[1] = target: T1, isolated human 20S proteasome, CT-L activity (Homo sapiens, UniProt P20618+P28074); test: Proteasome inhibition assay in isolated human 20S proteasomes (Proteasome-Glo), CT-L activity; assay type: biochemical; details: for inhibition at 10 µM: read-out: percentage of proteasome inhibition, CT-L, isolated 20S proteasome; for percentage of proteasome inhibition, CT-L, isolated human 20S proteasome: at 100 µM, Table 1 legend: bortezomib positive control 10 µM
T1 construct: human purified erythrocyte-derived 20S proteasome; purchased Enzo Life Sciences, Inc; host or cells: human erythrocytes (natural source)
Source text: In this assay, the peptide substrates are bound to aminoluciferin (Suc-LLVY-AML for CT-L activity, Z-nLPnLD-AML for C-L, and Z-LRR-AML for T-L), leading the cleavage of these substrates by the proteasome to the release of free aminoluciferin, which is the substrate of the buffer-contained luciferase.
To evaluate human purified erythrocyte-derived 20S proteasome inhibitory activity of the chosen compounds, the Proteasome-Glo™ 3-substrate system (Promega Corporation, Madison, WI, USA) was employed. The Proteasome-Glo™ reagents of the three proteolytic activities were prepared according to the manufacturer’s instructions, aliquoted, and stored at either −20 °C or 4 °C, avoiding freezing–thaw cycles. […] The purified 20S proteasome (Enzo Life Sciences, Inc., Farmingdale, NY, USA) was diluted in HEPES buffer 10 mM, pH 7.4, to a concentration experimentally adjusted to the signal/noise ratio obtained with each particular lot of Proteasome-Glo™ reagent, in order to have a good compromise between sensitivity and linear response. […] All assays were performed in white-walled multiwell plates (Thermo Scientific™ Sterilin™ White Microtiter™ plates, Thermo Fisher Scientific, Paisley, UK) in duplicates. The proteasome solution (25 μL) was added to each well first, then the diluted solutions of the assayed compounds (25 μL), and lastly the Proteasome-Glo™ Reagent (50 μL). […] Reagents were added to the plate well on ice, and the plate was then transferred to the plate luminometer (SpectraMax®, Molecular Devices, LLC, San Jose, CA, USA) set at 37 °C, gently mixed for 30 s, and the measurements were immediately started in kinetic mode, with data collected every 5 min for at least 60 min.
All compounds were dissolved in DMSO at a concentration of 10 mM and stored at −20 °C or 4 °C. Solutions of the test compounds were prepared at their adequate dilutions in 10 mM HEPES buffer pH 7.6 before each experiment.
To calculate the proteasome activity over time, the value of mean relative luminescence units (RLU) of blank wells at each respective time point was subtracted, and then the ratio between mean RLU of the sample and mean RLU of the positive control wells was calculated for each time point and expressed as percentage.

[2] = Cell viability, MTT assay, K562; assay type: cell-based, human; details: human, K562 leukemia cells, read-out: percentage of cell viability, MTT, K562; for viability at 72 h, 10 µM: at 10 µM; for viability at 72 h, 100 µM: at 100 µM
Procedure: (§1) Whenever possible, additional concentrations were tested and IC50 values were determined.
(§2) Human leukemia Jurkat E6.1 T-cell line and K562-cell line were originally obtained from ATCC Collections (Manassas, VA, USA); human HT-29 and HCT116 colorectal carcinoma-cell lines were obtained from ECACC (Porton Down, Porton, UK). Cells were passaged for less than 6 months after and routinely tested for mycoplasma contamination using Mycoalert detection kit (Lonza, Basel, Switzerland). Jurkat, K562, and HT-29 cells were maintained in Roswell Park Memorial Institute (RPMI) 1640 with GlutaMAX™, supplemented with 1% antibiotic mixture (100 µg/mL streptomycin and 100 U/mL penicillin) and 10% heat-inactivated foetal bovine serum (FBS) (all from Gibco, Thermo Fisher Scientific, Paisley, UK). HCT116 cells were maintained in Dulbecco’s Modified Eagle Medium (DMEM) with GlutaMAX™, supplemented with 1% antibiotic mixture (100 µg/mL streptomycin and 100 U/mL penicillin) and 10% heat-inactivated FBS (all from Gibco, Thermo Fisher Scientific, Paisley, UK). Incubation was performed at 37 °C in a 5% CO2 atmosphere. Cells were routinely passaged every 2 or 3 days at 70–90% confluence; TrypLE Express (Gibco, Thermo Fisher Scientific, Paisley, UK) was used as dissociation agent for adherent cells. Trypan blue (Gibco, Thermo Fisher Scientific, Paisley, UK) was used to assess cell viability using the dye exclusion test.
(§3) To assess cell viability, the MTT assay was performed. Jurkat/K562/HT-29/HCT116 cell lines were seeded in triplicate (10,000 cells/well) in 96-well plates with 50 µL of complete medium and incubated at 37 °C, 5% CO2 for 24 h to allow the cells to adhere to the plate (in the case of adherent cells). […] Untreated cells seeded in triplicate were used as control. The blank was performed in triplicate with 100 µL of culture medium. The cells were incubated with the compounds, in triplicate, in 100 µL of total volume, at 37 °C, 5% CO2 for 72 h. […] In suspension cells (Jurkat), 25 µL of MTT were directly added to each well and, after 3 h 30 m of incubation, 100 µL of DMSO were added to solubilize the formazan crystals; in adherent cells (HT-29 and HCT116), the culture medium was removed, 25 µL of MTT were added to each well and, after 3 h 30 m of incubation, upon MTT removal, 100 µL of DMSO were added to solubilize the formazan crystals. After 15 min, the samples absorbance was measured at 570 nm and the percentage of cell viability was determined.

[3] = Cell viability, MTT assay, HT-29; assay type: cell-based, human; details: human, HT-29 colorectal carcinoma cells, read-out: percentage of cell viability, MTT, HT-29; for viability at 72 h, 10 µM: at 10 µM; for viability at 72 h, 100 µM: at 100 µM
Procedure: as §1, §2, §3

[4] = Cell viability, MTT assay, HCT116; assay type: cell-based, human; details: human, HCT116 colorectal carcinoma cells; for viability at 72 h, 10 µM: at 10 µM, read-out: percentage of cell viability, MTT, HCT-116; for viability at 72 h, 100 µM: at 100 µM, read-out: percentage of cell viability, MTT, HCT116
Procedure: as §1, §2, §3

HCT116 cells = test: Cell viability, MTT assay, HCT116; assay type: cell-based, human; details: 72 h; for IC50: Homo sapiens, HCT-116, mean ± SD; for percentage of cell viability, MTT, HCT116: at 100 µM
Procedure: as §1, §2, §3

[5] = target: T2, 20S proteasome in K562 cell lysates, C-L activity (Homo sapiens, UniProt P28072); test: Proteasome inhibition assay in cell lysates, K562, C-L; details: for inhibition at 10 µM: read-out: percentage of proteasome inhibition, C-L, cell lysates K562, at 10 µM; for inhibition at 100 µM: read-out: percentage of proteasome inhibition, C-L, cell lysates K562, at 100 µM
T2 sequence (P28072 35-239 limits assumed): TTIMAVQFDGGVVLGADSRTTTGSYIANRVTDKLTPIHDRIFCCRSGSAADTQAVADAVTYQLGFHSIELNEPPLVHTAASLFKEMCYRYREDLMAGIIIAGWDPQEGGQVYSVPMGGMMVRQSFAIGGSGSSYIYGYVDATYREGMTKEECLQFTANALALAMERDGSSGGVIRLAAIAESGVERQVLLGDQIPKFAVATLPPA
T2 sequence (Q99436 44-277 partner): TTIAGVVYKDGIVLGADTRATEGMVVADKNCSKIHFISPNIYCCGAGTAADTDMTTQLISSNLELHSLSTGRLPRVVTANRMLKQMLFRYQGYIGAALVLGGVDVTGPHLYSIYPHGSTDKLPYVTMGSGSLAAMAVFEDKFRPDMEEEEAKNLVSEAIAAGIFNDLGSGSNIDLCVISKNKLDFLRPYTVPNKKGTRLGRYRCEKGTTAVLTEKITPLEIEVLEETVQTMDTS
Procedure: Cells were obtained from several cultured cell lines: Jurkat, K562, HT-29, and HCT116. Pellets with 20 × 10^6 cells were prepared and washed with cold sterile phosphate buffered saline (PBS), 1×, pH 7.4 (Gibco, Thermo Fisher Scientific, Paisley, UK). The preparation of the lysates from several cell lines was performed based on the methodology described by Gavioli et al. [67]. Cells were resuspended in buffer containing 50 mM TRIS-HCl pH 7.4 (Nzytech, Lisboa, Portugal), 5 mM MgCl2 (≥98% purity, Merck, Hamburg, Germany), 1 mM DTT (Merck, Hamburg, Germany), 2 mM ATP (≥98% purity, Enzo Life Sciences Inc., Farmingdale, NY, USA), and 250 mM saccharose (Merck, Hamburg, Germany). Glass beads (Merck, Hamburg, Germany) equivalent to the volume of the cell suspension were added, and the mixture was vortexed for 2 min at 4 °C. Beads and cell debris were removed using 5 min centrifugation at 1000× g and 4 °C, followed by 20 min of centrifugation at 10,000× g at 4 °C. Cell lysates containing proteasomes were resuspended in “activity buffer” [50 mM TRIS-HCl (pH 7.4), 5 mM MgCl2, 1 mM DTT, 2 mM ATP (≥98% purity, Enzo Life Sciences Inc., Farmingdale, NY, USA), and 500 µM EDTA (≥98% purity, Merck, Hamburg, Germany)]. Protein concentration was determined using the Pierce™ BCA protocol (Thermo Fisher Scientific, Rockford, IL, USA). […] DMSO was added in an equal volume as used for the untreated compounds as a way to assess/control its influence in the assay. Untreated cells were used as control. In each well of a 96-well plate, 25 µL of lysate were seeded in duplicate with 25 µL of the compound to test; in the control, 25 µL of activity buffer were added to the 25 µL of lysate. A blank (50 µL of activity buffer) was added to the wells in quadruplicate. Cell lysates, pre-treated or not with different concentrations of the test compounds, were incubated for 30 min at 37 °C. […] Stock solutions (10 mM) of each substrate were prepared in DMSO, diluted in activity buffer, and 50 µL were added to all wells (final concentration of each substrate = 100 µM), followed by an incubation at 37 °C for 60 min. Samples fluorescence was measured at an excitation wavelength of 360 nm and emission of 465 nm; the fluorescence measures were performed using the GloMax-Multi + Detection System (Promega Corp., Madison, WI, USA). Activity was evaluated in fluorescence units, after being converted to percentage of proteasome inhibition and, whenever possible, expressed as IC50 by plotting the inhibition data of each compound at different concentrations against the log of the concentration of the inhibitor, using the GraphPad Prism software version 7. At least eight different concentrations of the test compounds were used.

[6] = at 100 µM, Table 2 legend: bortezomib 10 µM
[7] = Table 2 legend: bortezomib 10 µM
[8] = mean ± SD, read-out: IC50, CT-L, isolated human 20S proteasome

Compound	inhibition at 10 µM ([1]; at 10 µM) [%]	percentage of proteasome inhibition, CT-L, isolated human 20S proteasome [1]	IC50 (HCT116 cells) [µM]	percentage of proteasome inhibition, C-L, cell lysates K562 ([5]; at 10 µM) [%]	percentage of proteasome inhibition, C-L, cell lysates K562 [5, 6]	inhibition at 10 µM [5] [%]	inhibition at 100 µM [5, 7] [%]	IC50 [1, 8] [µM]	IC50 [1] [µM]	inhibition at 10 µM [1] [%]	viability at 72 h, 10 µM [2] [%]	viability at 72 h, 100 µM [2] [%]	viability at 72 h, 10 µM [3] [%]	viability at 72 h, 100 µM [3] [%]	viability at 72 h, 10 µM [4] [%]	viability at 72 h, 100 µM [4] [%]	percentage of cell viability, MTT, HCT116 (HCT116 cells) [%]
CC(C)C[C@H](NC(=O)[C@H](Cc1ccccc1)NC(=O)c1cnccn1)B(O)O [Bortezomib, bortezomib, reference compound]	91	99.92% and 100%	0.0107	94.99	97.19% and 97%						0	0	0	0	0	0	
O=C1c2ccccc2C(=O)c2c(Nc3ccc(S(=O)(=O)N(CCO)CCO)cc3)ccc(O)c21 [Compound 2]	81.3	98%			63%	0	63.2	5.6			86.3		79.9	65.4	98	89.1	89
CC(C)c1nc(CN(C)C(=O)N[C@@H](CCN2CCOCC2)C(=O)N[C@H](CC[C@H](Cc2ccccc2)NC(=O)OCc2cncs2)Cc2ccccc2)cs1 [Compound 5, cobicistat, reference compound]	2.85	35.60% and 36%	58.4										98.3	25.4	98.7	23.7	24

Continued, in another order:

inhibition at 10 µM ([1]; at 10 µM) [%]	percentage of proteasome inhibition, CT-L, isolated human 20S proteasome [1]	IC50 (HCT116 cells) [µM]	percentage of proteasome inhibition, C-L, cell lysates K562 ([5]; at 10 µM) [%]	percentage of proteasome inhibition, C-L, cell lysates K562 [5, 6]	inhibition at 10 µM [5] [%]	inhibition at 100 µM [5, 7] [%]	IC50 [1, 8] [µM]	IC50 [1] [µM]	inhibition at 10 µM [1] [%]	Compound	viability at 72 h, 10 µM [2] [%]	viability at 72 h, 100 µM [2] [%]	viability at 72 h, 10 µM [3] [%]	viability at 72 h, 100 µM [3] [%]	viability at 72 h, 10 µM [4] [%]	viability at 72 h, 100 µM [4] [%]	percentage of cell viability, MTT, HCT116 (HCT116 cells) [%]
0	37.72% and 38%	65.7		28%	0	28.2				Cc1ccc2ccccc2c1CSc1ncnc2c1ncn2C1OC(CO)C(O)C1O (stereo not shown) [Compound 1]	93.1	18.2	96.7	23.3	95.5	24	
	91.40% and 91%			39%	14.2	38.8		49.3	8.2	Cc1ccc(/C(=N/NS(=O)(=O)c2ccc([N+](=O)[O-])cc2)Sc2cc(Cl)c(C)cc2S(N)(=O)=O)cc1 [Compound 3]	100	100	100	100	100	95.2	95
3.3	69.90% and 70%	1.02					51.1			C#CCCN1CCN(c2ccc(-n3c(=O)ccc4cnc5ccc(-c6ccc(N)nc6)cc5c43)cc2C(F)(F)F)CC1 [Compound 4, 9-(6-Aminopyridin-3-yl)-1-(4-(4-(but-3-yn-1-yl)piperazin-1-yl)-3-(trifluoromethyl)phenyl)benzo[h][1,6]naphthyridin-2(1H)-one]			94.1	34.3	38.4	0	
